# Source: paper PMC9814779, “A triple farnesoid X receptor and peroxisome proliferator-activated receptor α/δ activator reverses hepatic fibrosis in diet-induced NASH in mice” (Communications Chemistry, 2020)
# Like-named read-outs stand apart in the source and are kept apart here.
# Tests used:
# Format in all cases: cell-based
# Set-up in all cases: Emax: dose or concentration left out as unconfirmed
# [1] = target: T1, human PPARγ ligand-binding domain (Gal4 chimera) (Homo sapiens, UniProt P37231); assay: Gal4 hybrid reporter gene assay, PPARγ
# T1 construct: coding for the hinge region and LBD of the canonical isoform of the respective nuclear receptor; expressed in transfected cells; host or cells: HEK293T
# T1 sequence (P37231 238-503 limits assumed): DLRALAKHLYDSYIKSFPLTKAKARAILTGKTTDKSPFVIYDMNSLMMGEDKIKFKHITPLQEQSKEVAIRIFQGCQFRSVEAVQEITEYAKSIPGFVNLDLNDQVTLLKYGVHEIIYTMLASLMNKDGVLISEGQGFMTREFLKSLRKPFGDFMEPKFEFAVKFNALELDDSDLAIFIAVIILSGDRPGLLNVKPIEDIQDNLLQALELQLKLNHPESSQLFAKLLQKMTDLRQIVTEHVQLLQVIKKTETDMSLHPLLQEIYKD
# [2] = target: T2, human FXR:retinoid X receptor (RXR) heterodimer (Homo sapiens, UniProt Q96RI1); assay: Full-length FXR reporter gene assay (BSEP response element) in HeLa cells; conditions: for EC50: mean ± SEM; for FXR max. rel. act.: Supplementary Table 1, relative to GW4064 at 3 µM; for Emax: read-out: max. rel. act. FXR
# T2 construct: pcDNA3-hFXR[32] and pSG5-hRXR[33] served for receptor overexpression in the full-length FXR assay; expressed in transfected cells; host or cells: HeLa
# [3] = target: T3, human PPARδ ligand-binding domain (Gal4 chimera) (Homo sapiens, UniProt Q03181); assay: Gal4 hybrid reporter gene assay, PPARδ; conditions: for EC50: mean ± SEM
# T3 construct: coding for the hinge region and LBD of the canonical isoform of the respective nuclear receptor; expressed in transfected cells; host or cells: HEK293T
# T3 sequence (Q03181 211-439 limits assumed): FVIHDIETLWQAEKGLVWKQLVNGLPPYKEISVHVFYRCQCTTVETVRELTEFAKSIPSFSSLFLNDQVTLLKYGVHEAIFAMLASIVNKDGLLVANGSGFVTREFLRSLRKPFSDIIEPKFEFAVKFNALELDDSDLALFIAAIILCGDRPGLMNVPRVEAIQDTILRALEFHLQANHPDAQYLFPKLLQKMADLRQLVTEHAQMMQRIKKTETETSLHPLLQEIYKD
# [4] = target: T4, human PPARα ligand-binding domain (Gal4 chimera) (Homo sapiens, UniProt Q07869); assay: Gal4 hybrid reporter gene assay, PPARα; conditions: for EC50: mean ± SEM
# T4 construct: coding for the hinge region and LBD of the canonical isoform of the respective nuclear receptor; expressed in transfected cells; host or cells: HEK293T
# T4 sequence (Q07869 239-466 limits assumed): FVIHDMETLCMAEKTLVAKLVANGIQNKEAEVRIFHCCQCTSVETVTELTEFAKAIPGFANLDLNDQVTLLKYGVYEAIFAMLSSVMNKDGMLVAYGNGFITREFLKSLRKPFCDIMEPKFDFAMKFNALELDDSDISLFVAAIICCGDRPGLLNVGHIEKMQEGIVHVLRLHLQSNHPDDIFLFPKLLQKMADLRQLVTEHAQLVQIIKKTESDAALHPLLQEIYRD
# [5] = Supplementary Table 1, chromene derivatives, mean ± SEM, n ≥ 2, read-out: PPAR EC50
# [6] = Supplementary Table 1, chromene derivatives, n ≥ 2, read-out: FXR EC50
# [7] = Supplementary Table 1, chromene derivatives, n ≥ 2, read-out: PPAR EC50
# [8] = PPAR EC50 [M], Supplementary Table 1, chromene derivatives, n ≥ 2
# [9] = HeLa, n = 3, read-out: EC50 [μM] FXR
# [10] = EC50 [μM] PPARδ, HEK293T, n = 3
# [11] = EC50 [μM] PPARα, HEK293T, n = 3
# [12] = HEK293T, mean ± SEM, n = 3, read-out: EC50 [μM] PPARγ
# [13] = HEK293T, n = 3, read-out: EC50 [μM] PPARδ
# T2 sequence (P19793 whole entry): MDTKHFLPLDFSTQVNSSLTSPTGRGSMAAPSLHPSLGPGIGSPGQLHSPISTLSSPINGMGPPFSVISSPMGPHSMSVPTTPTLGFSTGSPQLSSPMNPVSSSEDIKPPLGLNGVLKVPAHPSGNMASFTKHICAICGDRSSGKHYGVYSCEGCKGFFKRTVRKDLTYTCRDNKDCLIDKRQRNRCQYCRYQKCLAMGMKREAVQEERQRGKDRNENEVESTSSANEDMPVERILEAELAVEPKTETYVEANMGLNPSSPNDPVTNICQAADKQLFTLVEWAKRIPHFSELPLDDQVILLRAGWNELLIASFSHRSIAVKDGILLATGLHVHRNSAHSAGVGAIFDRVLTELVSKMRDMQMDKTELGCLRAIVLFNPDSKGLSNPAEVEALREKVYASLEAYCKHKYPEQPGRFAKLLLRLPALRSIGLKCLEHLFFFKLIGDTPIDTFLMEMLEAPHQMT
# T2 sequence (Q96RI1 whole entry): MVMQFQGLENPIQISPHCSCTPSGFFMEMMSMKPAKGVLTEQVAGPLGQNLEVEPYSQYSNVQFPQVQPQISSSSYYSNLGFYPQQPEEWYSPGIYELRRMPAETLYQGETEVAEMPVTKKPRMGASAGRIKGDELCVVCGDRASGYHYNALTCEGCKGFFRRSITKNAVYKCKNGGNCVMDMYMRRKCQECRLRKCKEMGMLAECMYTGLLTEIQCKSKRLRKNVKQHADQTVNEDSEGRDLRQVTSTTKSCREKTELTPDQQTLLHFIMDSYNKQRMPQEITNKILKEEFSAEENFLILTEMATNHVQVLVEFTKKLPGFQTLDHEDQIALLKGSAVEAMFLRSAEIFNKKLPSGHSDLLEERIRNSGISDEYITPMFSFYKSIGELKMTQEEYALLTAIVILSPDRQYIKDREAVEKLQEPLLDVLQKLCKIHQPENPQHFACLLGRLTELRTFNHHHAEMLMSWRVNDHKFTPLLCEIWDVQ
Compound,"EC50 [1, 5] [µM]",Emax ([1]; read-out: PPAR max. rel. act.) [%],"EC50 [2, 6] [µM]",FXR max. rel. act. ([2]; n ≥ 2) [%],"EC50 [3, 7] [µM]",Emax ([3]; read-out: PPAR max. rel. act.) [%],"EC50 [4, 8] [M]",Emax ([4]; read-out: PPAR max. rel. act.) [%],EC50 [1] [µM],Emax ([1]; read-out: max. rel. act. PPARγ) [%],Emax ([2]; HeLa) [%],"EC50 [2, 9] [µM]","EC50 [3, 10] [µM]","EC50 [4, 11] [M]",Emax ([4]; read-out: max. rel. act. PPARα) [%],Emax ([3]; read-out: max. rel. act. PPARδ) [%],"EC50 [1, 12] [µM]","EC50 [3, 13] [µM]",preference over PPARγ ([1]; triple FXR/PPARα/δ potency versus PPARγ)
"O=C(O)CCc1cccc(NC(=O)c2ccccc2NC(=O)C2=Cc3ccccc3OC2)c1 [S1, 3-(3-[2-{2H-Chromene-3-carboxamido}benzamido]phenyl)propanoic acid]",7.7 ± 0.6,6.6 ± 0.2,4.1 ± 0.8,14 ± 1,1.2 ± 0.1,26 ± 1,5.2e-06 ± 8e-07,26 ± 3,–,–,–,–,–,–,–,–,–,–,–
"O=C(O)CCc1cccc(NC(=O)c2ccccc2NC(=O)C2=C(Cl)c3ccccc3OC2)c1 [S2, 3-(3-[2-{4-Chloro-2H-chromene-3-carboxamido}benzamido]phenyl)propanoic acid]",2.3 ± 0.1,9 ± 0.1,11 ± 1,16 ± 1,0.42 ± 0.01,31 ± 1,4.6e-07 ± 3e-08,31 ± 1,–,–,–,–,–,–,–,–,–,–,–
"Cc1cccc2c1C=C(C(=O)Nc1ccccc1C(=O)Nc1cccc(CCC(=O)O)c1)CO2 [S3, 3-(3-[2-{5-Methyl-2H-chromene-3-carboxamido}benzamido]phenyl)propanoic acid]",8 ± 0.8,14 ± 1,4.3 ± 0.3,11 ± 1,0.67 ± 0.04,27 ± 1,8.3e-07 ± 1e-07,24 ± 1,–,–,–,–,–,–,–,–,–,–,–
"Cc1ccc2c(c1)C=C(C(=O)Nc1ccccc1C(=O)Nc1cccc(CCC(=O)O)c1)CO2 [S4, 3-(3-[2-{6-Methyl-2H-chromene-3-carboxamido}benzamido]phenyl)propanoic acid]",5 ± 1.6,36 ± 8,5.4 ± 0.1,12 ± 1,1.5 ± 0.2,16 ± 1,8.4e-07 ± 1e-07,29 ± 1,–,–,–,–,–,–,–,–,–,–,–
"O=C(O)CCc1cccc(NC(=O)c2ccccc2NC(=O)C2=Cc3cc(F)ccc3OC2)c1 [S5, 3-(3-[2-{6-Fluoro-2H-chromene-3-carboxamido}benzamido]phenyl)propanoic acid]",4.6 ± 0.8,17 ± 1,> 10,–,2.6 ± 0.8,20 ± 3,1.8e-06 ± 6e-07,20 ± 1,–,–,–,–,–,–,–,–,–,–,–
O=C(O)CCc1cccc(NC(=O)c2ccccc2NC(=O)C2=Cc3cc(Cl)ccc3OC2)c1 [S6],3 ± 0.5,5.1 ± 0.3,> 10,–,1.6 ± 0.5,14 ± 2,3.1e-06 ± 4e-07,27 ± 2,–,–,–,–,–,–,–,–,–,–,–
Cc1ccc2c(c1)OCC(C(=O)Nc1ccccc1C(=O)Nc1cccc(CCC(=O)O)c1)=C2 [S7],5 ± 1.6,7.9 ± 1.4,> 10,–,1.1 ± 0.1,30 ± 1,3.4e-06 ± 1e-07,38 ± 1,–,–,–,–,–,–,–,–,–,–,–
Cc1cccc2c1OCC(C(=O)Nc1ccccc1C(=O)Nc1cccc(CCC(=O)O)c1)=C2 [S8],3.1 ± 0.2,9.3 ± 0.5,> 10,–,1.2 ± 0.4,18 ± 2,3.5e-06 ± 2e-07,29 ± 1,–,–,–,–,–,–,–,–,–,–,–
O=C(O)CCc1cccc(NC(=O)c2ccccc2NC(=O)C2=Cc3cccc(Cl)c3OC2)c1 [S9],2.4 ± 0.2,7.6 ± 0.2,> 10,–,0.91 ± 0.36,16 ± 2,2.3e-06 ± 1e-07,35 ± 1,–,–,–,–,–,–,–,–,–,–,–
COc1cccc2c1OCC(C(=O)Nc1ccccc1C(=O)Nc1cccc(CCC(=O)O)c1)=C2 [S10],23 ± 2,8.6 ± 0.6,2.8 ± 0.3,14 ± 1,5.2 ± 0.2,30 ± 1,6.6e-06 ± 1.8e-06,26 ± 5,–,–,–,–,–,–,–,–,–,–,–
O=C(O)CCc1cccc(NC(=O)c2ccccc2NC(=O)C2=Cc3cccc(O)c3OC2)c1 [S11],7.9 ± 1.2,6.3 ± 0.5,> 10,–,> 30,–,> 3e-05,–,–,–,–,–,–,–,–,–,–,–,–
O=C(O)Cc1ccccc1NC(=O)c1ccccc1NC(=O)c1ccc2ccccc2c1 [compound 7],–,–,–,–,–,–,–,–,1.7 ± 0.1,17 ± 10,31,9.2 ± 0.2,> 10,1.4e-06 ± 1e-07,33,–,–,–,–
O=C(O)CCc1cccc(NC(=O)c2ccccc2NC(=O)c2ccc3ccccc3c2)c1 [compound 9],–,–,–,–,–,–,–,–,2.6 ± 0.3,19,20,2.6 ± 0.3,0.65 ± 0.03,1e-06 ± 2e-07,31,28,–,–,–
O=C(O)CCc1ccc(NC(=O)c2ccccc2NC(=O)c2ccc3ccccc3c2)cc1 [compound 12],–,–,–,–,–,–,–,–,–,–,21 ± 10,2.1 ± 0.1,–,> 3e-05,–,–,> 30,> 30,–
O=C(O)COc1cccc(NC(=O)c2ccccc2NC(=O)c2ccc3ccccc3c2)c1 [compound 13],–,–,–,–,–,–,–,–,19 ± 1,11,19,5 ± 1,10 ± 1,1e-05 ± 1e-06,35,43,–,–,–
O=C(O)CNc1cccc(NC(=O)c2ccccc2NC(=O)c2ccc3ccccc3c2)c1 [compound 14],–,–,–,–,–,–,–,–,–,7.7,31,1.3 ± 0.1,–,> 3e-05,–,83,5.7 ± 0.1,3.5 ± 0.2,–
CC(C)(Nc1cccc(NC(=O)c2ccccc2NC(=O)c2ccc3ccccc3c2)c1)C(=O)O [compound 15],–,–,–,–,–,–,–,–,5.1 ± 0.9,18,10,0.45 ± 0.01,3.6 ± 0.2,1.7e-06 ± 1e-07,71,42,–,–,–
Cc1cccc(C(=O)Nc2cccc(CCC(=O)O)c2)c1NC(=O)c1ccc2ccccc2c1 [compound 16],–,–,–,–,–,–,–,–,7.1 ± 1.3,6,–,> 10,2.7 ± 0.3,6.2e-06 ± 1e-07,31,30,–,–,–
Cc1ccc(C(=O)Nc2cccc(CCC(=O)O)c2)c(NC(=O)c2ccc3ccccc3c2)c1 [compound 17],–,–,–,–,–,–,–,–,1.4 ± 0.3,21,21,1.5 ± 0.1,0.17 ± 0.02,1.7e-06 ± 2e-07,67,34,–,–,–
Cc1ccc(NC(=O)c2ccc3ccccc3c2)c(C(=O)Nc2cccc(CCC(=O)O)c2)c1 [compound 18],–,–,–,–,–,–,–,–,3.3 ± 0.1,23,–,> 10,0.21 ± 0.01,8e-07 ± 2e-08,25,14,–,–,–
Cc1cccc(NC(=O)c2ccc3ccccc3c2)c1C(=O)Nc1cccc(CCC(=O)O)c1 [compound 19],–,–,–,–,–,–,–,–,11 ± 2,2.5,–,> 10,6.3 ± 0.9,7.4e-06 ± 4e-07,15,20,–,–,–
O=C(O)CCc1cccc(NC(=O)c2ccc(Cl)cc2NC(=O)c2ccc3ccccc3c2)c1 [compound 20],–,–,–,–,–,–,–,–,1.4 ± 0.1,6,–,> 10,1.9 ± 0.2,3e-06 ± 1e-07,16,16,–,–,–
O=C(O)CCc1cccc(NC(=O)c2ccc(O)cc2NC(=O)c2ccc3ccccc3c2)c1 [compound 21],–,–,–,–,–,–,–,–,2.3 ± 0.3,20,16,4.5 ± 0.1,2.4 ± 0.1,5.3e-06 ± 5e-07,54,34,–,–,–
CC(C)(C)c1ccc(C(=O)Nc2cccc(CCC(=O)O)c2)c(NC(=O)c2ccc3ccccc3c2)c1 [compound 24],–,–,–,–,–,–,–,–,1.5 ± 0.1,20,–,–,–,3.1e-07 ± 8e-08,63,–,–,–,approximately fivefold preference over PPARγ
O=C(O)CCc1cccc(NC(=O)c2ccccc2NC(=O)c2ccc(-c3ccoc3)cc2)c1 [compound 32],–,–,–,–,–,–,–,–,4.2 ± 0.9,38,20,0.23 ± 0.01,–,1.6e-06 ± 3e-07,31,–,–,–,–
